Target: H1047R PIK3CA enzyme (Homo sapiens, UniProt P42336, H1047R)
Assay: ADP-Glo Biochemical PIK3CA Kinase Assay

H1047R PIK3CA enzyme, sequence (P42336 whole entry H1047R): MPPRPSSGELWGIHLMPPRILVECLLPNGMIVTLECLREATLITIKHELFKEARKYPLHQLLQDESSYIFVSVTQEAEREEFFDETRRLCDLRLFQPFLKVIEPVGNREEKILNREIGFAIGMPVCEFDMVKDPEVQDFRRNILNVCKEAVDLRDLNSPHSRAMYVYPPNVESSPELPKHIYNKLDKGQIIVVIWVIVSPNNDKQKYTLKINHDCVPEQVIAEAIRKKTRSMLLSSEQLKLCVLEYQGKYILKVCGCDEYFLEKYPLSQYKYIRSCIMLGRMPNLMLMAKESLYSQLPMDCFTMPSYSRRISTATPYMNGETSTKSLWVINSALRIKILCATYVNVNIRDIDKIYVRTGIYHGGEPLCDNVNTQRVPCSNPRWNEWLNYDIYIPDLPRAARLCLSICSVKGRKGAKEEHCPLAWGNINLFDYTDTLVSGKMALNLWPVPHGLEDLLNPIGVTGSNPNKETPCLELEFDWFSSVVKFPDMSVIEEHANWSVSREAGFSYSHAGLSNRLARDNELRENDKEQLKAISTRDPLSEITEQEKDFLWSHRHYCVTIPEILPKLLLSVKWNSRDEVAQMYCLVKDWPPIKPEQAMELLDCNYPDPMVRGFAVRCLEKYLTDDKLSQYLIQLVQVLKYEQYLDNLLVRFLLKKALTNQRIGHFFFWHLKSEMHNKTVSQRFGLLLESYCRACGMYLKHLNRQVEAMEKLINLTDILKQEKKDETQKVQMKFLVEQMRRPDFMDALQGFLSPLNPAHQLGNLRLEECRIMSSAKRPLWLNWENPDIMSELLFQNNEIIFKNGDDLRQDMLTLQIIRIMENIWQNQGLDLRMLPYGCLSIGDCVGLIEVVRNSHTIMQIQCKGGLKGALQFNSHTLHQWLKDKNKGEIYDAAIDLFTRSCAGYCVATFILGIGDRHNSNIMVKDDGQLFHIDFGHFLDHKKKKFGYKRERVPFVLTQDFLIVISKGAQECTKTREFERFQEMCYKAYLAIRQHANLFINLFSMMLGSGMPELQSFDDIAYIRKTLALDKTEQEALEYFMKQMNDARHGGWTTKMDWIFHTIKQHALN
H1047R PIK3CA enzyme, sequence (P27986 whole entry partner): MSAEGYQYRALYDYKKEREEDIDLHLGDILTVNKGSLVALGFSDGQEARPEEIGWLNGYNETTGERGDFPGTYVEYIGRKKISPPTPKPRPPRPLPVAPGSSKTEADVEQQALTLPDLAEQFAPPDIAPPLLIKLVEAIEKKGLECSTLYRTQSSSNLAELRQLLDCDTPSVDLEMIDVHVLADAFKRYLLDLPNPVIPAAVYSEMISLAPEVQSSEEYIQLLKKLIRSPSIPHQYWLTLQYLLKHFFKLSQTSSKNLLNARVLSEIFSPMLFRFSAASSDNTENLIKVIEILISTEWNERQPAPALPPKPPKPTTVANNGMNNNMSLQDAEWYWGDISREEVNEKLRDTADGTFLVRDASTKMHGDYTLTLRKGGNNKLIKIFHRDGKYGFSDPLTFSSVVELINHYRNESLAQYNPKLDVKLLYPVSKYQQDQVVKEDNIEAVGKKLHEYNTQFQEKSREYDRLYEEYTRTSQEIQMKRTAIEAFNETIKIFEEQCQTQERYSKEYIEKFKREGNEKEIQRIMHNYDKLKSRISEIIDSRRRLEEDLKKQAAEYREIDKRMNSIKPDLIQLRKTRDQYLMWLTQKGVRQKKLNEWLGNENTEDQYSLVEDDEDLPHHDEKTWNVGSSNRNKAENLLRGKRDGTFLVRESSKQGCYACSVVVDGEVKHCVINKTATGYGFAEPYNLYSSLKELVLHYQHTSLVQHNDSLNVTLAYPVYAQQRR

IC50 [µM]	Compound
10 to 100	O=C1Cc2cccc(C3NC(=O)c4cccc(NC(=O)c5cc(F)cc(C(F)(F)F)c5)c43)c2N1 (stereo not shown) [Compound I-810]
≤ 0.1	Cn1nccc1-c1cc(NC(=O)c2cc(F)cc(C(F)(F)F)c2)c2c(c1)C(=O)N[C@H]2c1cc(F)ccc1Cl [Compound I-1136]
10 to 100	Cc1ccccc1C1NC(=O)c2cccc(NC(=O)c3noc4ccccc34)c21 (stereo not shown) [Compound I-41]
1 to 10	O=C(Nc1cc(-c2cscn2)cc2c1[C@@H](c1cc(F)ccc1Cl)NC2=O)c1cc(F)cc(C(F)(F)F)c1 [Compound I-1085]
1 to 10	O=C(Nc1cccc2c1C(c1ccccc1)NC2=O)c1cc(F)cc(C(F)(F)F)c1 (stereo not shown) [Compound I-1805]
≤ 0.1	Nc1nnc2ccc(-c3cc(NC(=O)c4cc(F)cc(C(F)(F)F)c4)c4c(c3)C(=O)NC4c3cc(F)ccc3Cl)cn12 (stereo not shown) [Compound I-1373]
1 to 10	O=C(Nc1cccc2c1C(C1CCCCC1)NC2=O)c1cc(F)cc(C(F)(F)F)c1 (stereo not shown) [Compound I-1611]
≤ 0.1	O=C(Nc1cc(-c2ccn3ncnc3c2F)cc2c1[C@H](c1cc(F)ccc1Cl)NC2=O)c1cc(F)cc(C(F)(F)F)c1 [Compound I-1765]
1 to 10	Cc1ccccc1-n1[nH]c(=O)c2cccc(N)c21 [Compound I-64]
10 to 100	Cc1ccccc1C1NC(=O)c2cccc(NC(=O)c3cnc4ccc(Cl)cn34)c21 (stereo not shown) [Compound I-47]
≤ 0.1	CC(C)(C#N)n1cc(-c2cc(NC(=O)c3cc(F)cc(C(F)(F)F)c3)c3c(c2)C(=O)NC3c2cc(F)ccc2Cl)cn1 (stereo not shown) [Compound I-1618]
0.1 to 0.5	COc1ccnc(Oc2cc(NC(=O)c3cc(F)cc(C(F)(F)F)c3)c3c(c2)C(=O)NC3c2cc(F)ccc2Cl)n1 (stereo not shown) [Compound I-1143]
≤ 0.1	N#Cc1cnc2c(F)cc(-c3cc(NC(=O)c4cc(F)cc(C(F)(F)F)c4)c4c(c3)C(=O)N[C@H]4c3cc(F)ccc3Cl)cn12 [Compound I-1856]
10 to 100	O=C(NCc1ccccc1)c1cc(Br)cc2c1C(c1cc(F)ccc1Cl)NC2=O (stereo not shown) [Compound I-1979]
≤ 0.1	O=C(Nc1cc(Nc2ccccc2)cc2c1C(c1cc(F)ccc1Cl)NC2=O)c1cc(F)cc(C(F)(F)F)c1 (stereo not shown) [Compound I-1213]
0.1 to 0.5	Cc1ccccc1C1NC(=O)c2c(Cl)ncc(NC(=O)c3cc(F)cc(C(F)(F)F)c3)c21 (stereo not shown) [Compound I-232, N-[4-Chloro-1-(2-methylphenyl)-3-oxo-1H,2H,3H-pyrrolo[3,4-c]pyridin-7-yl]-3-fluoro-5-(trifluoromethyl)benzamide]
1 to 10	CNc1cc(NC(=O)N2C[C@](O)(C(F)F)c3cc(F)ccc32)c2c(c1)C(=O)N[C@H]2c1cc(F)ccc1Cl (single isomer, unassigned) [Compound I-2678]

IC50 [µM]	Compound
0.1 to 0.5	O=C(Nc1cc(C2(O)COCC2O)cc2c1C(c1cc(F)ccc1Cl)NC2=O)c1cc(F)cc(C(F)(F)F)c1 (stereo not shown) [Compound I-1141]
10 to 100	O=C1NC(c2cc(F)ccc2Cl)c2c(NC(=O)N3CC4CC4(F)C3)cc(Br)cc21 (stereo not shown) [Compound I-1954]
10 to 100	O=C1NC(c2cc(F)ccc2Cl)c2c(NS(=O)(=O)c3cc(F)cc(C(F)(F)F)c3)cc(Br)cc21 (stereo not shown) [Compound I-1352]
0.1 to 0.5	O=C(Nc1cc(C(O)CN2CC(F)(F)C2)cc2c1C(c1cc(F)ccc1Cl)NC2=O)c1cc(F)cc(Cl)c1 (stereo not shown) [Compound I-334]
1 to 10	O=C(Nc1cc(Br)cc2c1[C@@H](c1ccc(F)cc1Cl)NC2=O)c1cc(F)cc(C(F)(F)F)c1 [Compound I-754]
0.1 to 0.5	[2H]C([2H])(c1cc(NC(=O)c2cc(F)cc(C(F)(F)F)c2)c2c(c1)C(=O)N[C@@H]2c1cc(F)ccc1Cl)S(C)(=O)=O (single isomer, unassigned) [Compound I-1788]
≤ 0.1	O=C(Nc1cc(-c2cn3ncnc3cc2F)cc2c1C(c1cc(F)ccc1Cl)NC2=O)c1cc(F)cc(C(F)(F)F)c1 (stereo not shown) [Compound I-1652]
1 to 10	NCc1cc(NC(=O)N2C[C@](O)(C(F)F)c3cc(F)ccc32)c2c(c1)C(=O)N[C@H]2c1cc(F)ccc1Cl (single isomer, unassigned) [Compound I-2697]
≤ 0.1	O=C(Nc1cc(-c2ccc3nnc(Cl)n3c2)cc2c1[C@H](c1cc(F)ccc1Cl)NC2=O)c1cc(F)cc(C(F)(F)F)c1 [Compound I-1734]
1 to 10	CSc1nc(NC(=O)c2cc(F)cc(C(F)(F)F)c2)c2c(n1)C(=O)NC2c1ccccc1Cl (stereo not shown) [Compound I-183]
10 to 100	O=C1N[C@H](c2cc(F)ccc2Cl)c2c(NC(=O)N3C[C@@](O)(C(F)F)c4ccccc43)cccc21 (single isomer, unassigned) [Compound I-2484]
10 to 100	N#Cc1cccc(C2NC(=O)c3cccc(NC(=O)c4cc(F)cc(C(F)(F)F)c4)c32)c1 (stereo not shown) [Compound I-659]
≤ 0.1	Cn1cc(-c2cc(NC(=O)c3cc(F)cc(C(F)(F)F)c3)c3c(n2)C(=O)N[C@H]3c2cc(F)ccc2Cl)cn1 [Compound I-187]
10 to 100	O=C(Nc1cc(Br)cc2c1C(c1cc(F)ccc1Cl)NC2=O)c1ccc2nncn2c1 (stereo not shown) [Compound I-637]
0.5 to 1	CNc1cc(NC(=O)N2C[C@@](O)(C(F)(F)F)c3cc(F)ccc32)c2c(n1)C(=O)N[C@H]2c1cc(F)ccc1Cl (single isomer, unassigned) [Compound I-2646]
0.1 to 0.5	COc1cc(C(=O)Nc2cc(Br)cc3c2C(c2cc(F)ccc2Cl)NC3=O)cc(Cl)c1F (stereo not shown) [Compound I-991]

Second part, the compound before the results:

Compound	IC50 [µM]
O=C1NC(c2cc(F)ccc2Cl)c2c(NC(=O)N3CCc4cnccc43)cccc21 (stereo not shown) [Compound I-2191]	1 to 10
O=C1NC(c2cc(F)ccc2Cl)c2c(NC(=O)C3CCCC(O)(C(F)(F)F)C3)cccc21 (stereo not shown) [Compound I-2136]	10 to 100
CC[C@H](CC(=O)Nc1cccc2c1[C@H](c1cc(F)ccc1Cl)NC2=O)[C@@H](C)C(F)(F)F (single isomer, unassigned) [Compound I-2335]	1 to 10
CC(C)(O)c1cc(NC(=O)c2cc(F)cc3cc[nH]c23)c2c(c1)C(=O)NC2c1cc(F)ccc1Cl (stereo not shown) [Compound I-495]	≤ 0.1
N#CCn1nccc1-c1cc(NC(=O)c2cc(F)cc(C(F)(F)F)c2)c2c(c1)C(=O)NC2c1cc(F)ccc1Cl (stereo not shown) [Compound I-1303]	≤ 0.1
Cc1ccccc1C1NC(=O)c2cccc(N)c21 (stereo not shown) [Compound I-62]	10 to 100
O=C(Nc1cc(Br)cc2c1[C@H](c1ccccc1C(F)F)NC2=O)c1cc(F)cc(C(F)(F)F)c1 [Compound I-789]	≤ 0.1
O=C1N[C@H](c2cc(F)ccc2Cl)c2c(NC(=O)c3nsc4ccccc34)cc(-c3ccc4ncnn4c3)cc21 (stereo in doubt) [Compound I-1830]	1 to 10
O=C(Nc1cc(-c2ccn3ncnc3c2F)cc2c1[C@@H](c1cc(F)ccc1Cl)NC2=O)c1cc(F)cc(C(F)(F)F)c1 [Compound I-1764]	1 to 10
O=C1N[C@@H](c2ccccc2Cl)c2c(NC(=O)N3C[C@](O)(C(F)(F)F)c4cc(F)ccc43)cccc21 (single isomer, unassigned) [Compound I-2686]	10 to 100
O=C1NC(c2cc(F)ccc2Cl)c2c(NC(=S)c3cc(F)cc(C(F)(F)F)c3)cccc21 (stereo not shown) [Compound I-753]	0.5 to 1
O=C1NC(c2cc(F)ccc2Cl)c2c(NC(=O)C3COC4CCCCC43)cccc21 (stereo not shown) [Compound I-2302]	10 to 100
O=C1NC(c2cc(F)ccc2Cl)c2c(NC(=O)N3CCCC3)cc(Br)cc21 (stereo not shown) [Compound I-481]	10 to 100
O=C1N[C@@H](c2cc(F)ccc2Cl)c2c(N[C@H]3CCOc4ccccc43)cc(-c3cnn(C(F)F)c3)nc21 (single isomer, unassigned) [Compound I-2160]	10 to 100
O=C1NC(c2cc(F)ccc2Cl)c2c(Nc3ccncc3)cc(Br)cc21 (stereo not shown) [Compound I-2025]	10 to 100
N#CCCc1cc(NC(=O)N2C[C@@H](O)c3cc(F)ccc32)c2c(c1)C(=O)N[C@@H]2c1cc(F)ccc1Cl (single isomer, unassigned) [Compound I-2348]	1 to 10

Compound	IC50 [µM]
O=C1NC(c2cc(F)ccc2Cl)c2c(NC(=O)[C@@H]3CC[C@H](O)C3)cc(Br)cc21 (single isomer, unassigned) [Compound I-1975]	10 to 100
CN(C)S(=O)(=O)c1cc(-c2ccc3ncnn3c2)cc2c1C(c1cc(F)ccc1Cl)NC2=O (stereo not shown) [Compound I-1968]	10 to 100
O=C(Nc1cc(CN2CCNCC2)cc2c1C(c1cc(F)ccc1Cl)NC2=O)c1cc(F)cc(C(F)(F)F)c1 (stereo not shown) [Compound I-350]	≤ 0.1
O=C(Nc1cc(OC[C@H]2CCCN2)cc2c1C(c1cc(F)ccc1Cl)NC2=O)c1cc(F)cc(C(F)(F)F)c1 (mixture of isomers) [Compound I-1457]	0.1 to 0.5
N#CCOc1cc(NC(=O)c2cc(F)cc(C(F)(F)F)c2)c2c(c1)C(=O)N[C@H]2c1cc(F)ccc1Cl [Compound I-1888]	≤ 0.1
O=C(Nc1cc(Br)cc2c1C(c1cc(F)ccc1Cl)NC2=O)c1cc(F)cc(S(F)(F)(F)(F)F)c1 (stereo not shown) [Compound I-774]	≤ 0.1
CS(=O)(=O)c1ccc(-c2cc(NC(=O)c3cc(F)cc(C(F)(F)F)c3)c3c(c2)C(=O)NC3c2cc(F)ccc2Cl)cn1 (stereo not shown) [Compound I-1455]	≤ 0.1
CNC(=O)c1ncc(-c2cc(NC(=O)c3cc(F)cc(C(F)(F)F)c3)c3c(c2)C(=O)NC3c2cc(F)ccc2Cl)cn1 (stereo not shown) [Compound I-1506]	0.1 to 0.5
Cc1ccccc1C1NC(=O)c2cccc(NC(=O)c3nsc4ccc(Br)cc34)c21 (stereo not shown) [Compound I-376]	0.5 to 1
O=C(Nc1cc(/N=C2\OC[C@H]3CCCN23)cc2c1C(c1cc(F)ccc1Cl)NC2=O)c1cc(F)cc(C(F)(F)F)c1 (stereo partly shown) [Compound I-2354]	0.1 to 0.5
CNc1cc(NC(=O)N2C[C@](O)(C(F)F)c3cc(F)ccc32)c2c(c1)C(=O)N[C@@H]2c1cc(F)ccc1Cl [Compound I-2677]	≤ 0.1
N#Cc1cnc2cnc(-c3cc(NC(=O)c4cc(F)cc(C(F)(F)F)c4)c4c(c3)C(=O)N[C@H]4c3cc(F)ccc3Cl)cn12 [Compound I-1923]	≤ 0.1
Cc1ccccc1C1NC(=O)c2nccc(NC(=O)c3csc4ccccc34)c21 (stereo not shown) [Compound I-7]	0.1 to 0.5
Cc1cc2ncnn2cc1-c1cc(NC(=O)c2cc(F)cc(C(F)(F)F)c2)c2c(c1)C(=O)NC2c1cc(F)ccc1Cl (stereo not shown) [Compound I-1827]	≤ 0.1
CC(=O)N1CC2(C1)CN(c1cc(NC(=O)c3cc(F)cc(C(F)(F)F)c3)c3c(c1)C(=O)NC3c1cc(F)ccc1Cl)C2 (stereo not shown) [Compound I-1301]	0.1 to 0.5

From patent publication US12581252B2, “Substituted pyrrolo[3,4-b]pyridines as PI3K-α inhibitors” (Relay Therapeutics, Inc., priority 2020, dated 2026)
